Measured values taken from PMC7265429, “Characterization of a new small-molecule inhibitor of HDAC6 in glioblastoma” (Cell Death & Disease, 2020).

What was measured:
U87-MG cells [1] = experiment: Cell viability in combined treatments with TMZ; format: cell-based; details: Homo sapiens, U-87 MG, 100 μM TMZ, 72 h, read-out: cell viability, TMZ alone
Description: (§1) Glioma-cell lines were seeded at a density of 1.5 × 10^3 cells/well in 96-well plates, with six replicates per condition. […] Cell viability was determined by MTT assay at 72 h after treatment. For this, MTT (3-(4,5-dimethyl-2-thiazolyl)-2,5-diphenyl-2H-tetrazolium bromide) reagent was added and, after a 3 h incubation at 37 °C and 5% CO2, media was removed and the formed crystals were resuspended in DMSO. Plates were measured at 570 nm using a spectrophotometer. Results were analyzed by GraphPad Prism software and IC50 values were calculated.

U87-MG cells [2] = experiment: Dose-response MTT cell viability assay, U87-MG; format: cell-based; details: Homo sapiens, U-87 MG, 72 h, Fig. 2d
Description: as §1

U251-MG cells = experiment: Dose-response MTT cell viability assay, U251-MG; format: cell-based; details: Homo sapiens, U-251, 72 h, Fig. 2d
Description: as §1

U373-MG cells = experiment: Dose-response MTT cell viability assay, U373-MG; format: cell-based; details: Homo sapiens, 72 h, Fig. 2d
Description: as §1

T98-G cells = experiment: Dose-response MTT cell viability assay, T98-G; format: cell-based; details: Homo sapiens, T98G, 72 h, Fig. 2d
Description: as §1

A172 cells = experiment: Dose-response MTT cell viability assay, A172; format: cell-based; details: Homo sapiens, A 172, 72 h, Fig. 2d
Description: as §1

[3] = test system: patient-derived GNS166 stem cells; experiment: Dose-response MTT cell viability assay, GNS166; format: cell-based; details: Homo sapiens, 72 h, Fig. 2d
Description: as §1

[4] = test system: patient-derived GNS179 stem cells; experiment: Dose-response MTT cell viability assay, GNS179; format: cell-based; details: Homo sapiens, 72 h, Fig. 2d
Description: as §1

[5] = test system: acetyl-α-tubulin (HDAC6 main target) in U251-MG cells; experiment: Western blot of acetyl-α-tubulin and cleaved PARP in U251-MG; format: cell-based, human; details: 10 nM, 48 h
Description: Immunoblots were performed following standard procedures. […] Detection was performed by chemiluminiscence using NOVEX ECL Chemi Substrate (ThermoFisher).

Row | IC50 (U87-MG cells [2]) [µM] | IC50 (U251-MG cells) [µM] | SMILES | viability at 100 µM (U87-MG cells [1]) [%] | IC50 (U373-MG cells) [µM] | IC50 (T98-G cells) [µM] | IC50 (A172 cells) [µM] | IC50 [3] [µM] | IC50 [4] [µM] | α-tubulin hyperacetylation [5]
1 |  |  | Cn1nnc2c(C(N)=O)ncn2c1=O [TMZ, temozolomide] | 85 |  |  |  |  |  | 
2 | 23.7 | 26.3 | CN1CCc2c(c3ccccc3n2Cc2ccc(C(=O)NO)cc2)C1 [Tubastatin A] |  | 13.2 | 104 | 52.5 | 26.4 | 175 | did not
